In ChEMBL document CHEMBL1201862, “PubChem BioAssay data set” (2004):
Active and inactive are the calls of the source.

Columns and labels:
Fatty acid synthase [1] = target: T1, Fatty acid synthase (Homo sapiens, UniProt P49327); assay: FAS thioesterase domain inhibitors, dose response, biochemical, endpoint fluorescence intensity, uHTS hits (AID 624327); assay type: functional;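 further: fluorescence from hydrolysis of an O-methyl fluorescein acyl ester substrate by the enzyme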
Fatty acid synthase [2] = target: T1, Fatty acid synthase; assay: FAS thioesterase domain inhibitors, dose response, biochemical, kinetic fluorescence intensity (AID 624326); assay type: functional;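 further: rate of fluorescence rise from hydrolysis of a fluorogenic O-methyl fluorescein ester substrate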
[3] = target: G-protein coupled receptor 55 (Homo sapiens, UniProt Q9Y2T6); assay: GPR55 antagonists blocking LPI-driven arrestin recruitment, primary screen, imaging, U2OS, beta-arrestin-GFP, LPI agonist (AID 2013); assay type: functional;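 further: antagonist potency measured as reduced agonist-driven arrestin aggregation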
[4] = target: T2, Replicative DNA helicase DnaB (Mycobacterium tuberculosis, UniProt P9WMR3); assay: DnaB intein splicing inhibitors, dose response, biochemical, cell-free fluorescence (AID 449749); assay type: functional
T2 sequence (P9WMR3 whole entry): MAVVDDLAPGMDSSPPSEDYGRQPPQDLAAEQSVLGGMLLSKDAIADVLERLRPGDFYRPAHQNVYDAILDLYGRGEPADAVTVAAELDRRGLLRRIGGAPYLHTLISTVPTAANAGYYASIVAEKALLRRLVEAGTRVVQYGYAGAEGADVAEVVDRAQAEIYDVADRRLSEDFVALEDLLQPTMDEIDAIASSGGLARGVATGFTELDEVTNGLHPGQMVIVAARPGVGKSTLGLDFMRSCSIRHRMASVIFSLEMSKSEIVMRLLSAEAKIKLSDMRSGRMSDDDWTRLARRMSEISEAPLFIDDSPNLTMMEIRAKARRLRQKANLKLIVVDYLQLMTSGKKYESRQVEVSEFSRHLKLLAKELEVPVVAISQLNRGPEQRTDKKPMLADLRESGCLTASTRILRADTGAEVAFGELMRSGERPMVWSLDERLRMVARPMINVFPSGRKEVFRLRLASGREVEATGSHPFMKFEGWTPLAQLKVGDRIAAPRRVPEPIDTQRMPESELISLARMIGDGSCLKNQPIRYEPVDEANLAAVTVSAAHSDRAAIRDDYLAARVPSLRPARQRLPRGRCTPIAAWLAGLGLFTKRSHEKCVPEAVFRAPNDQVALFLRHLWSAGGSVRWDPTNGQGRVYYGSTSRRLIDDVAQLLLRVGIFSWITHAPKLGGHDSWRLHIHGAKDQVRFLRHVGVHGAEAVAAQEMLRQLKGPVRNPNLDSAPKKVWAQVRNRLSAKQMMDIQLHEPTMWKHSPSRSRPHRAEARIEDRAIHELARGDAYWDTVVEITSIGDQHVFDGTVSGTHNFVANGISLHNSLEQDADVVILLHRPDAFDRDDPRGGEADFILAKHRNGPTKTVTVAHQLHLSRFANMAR

Protein RecA = target: T3, Protein RecA (Mycobacterium tuberculosis, UniProt P9WHJ3); assay: Fluorescence Cell-Free Homogeneous Dose Retest to Identify Inhibitors of RecA-Intein Splicing Activity. [Related pubchem assays (depositor defined):AID2097, AID2223, AID489010, AID492950]; assay type: functional
T3 sequence (P9WHJ3 whole entry): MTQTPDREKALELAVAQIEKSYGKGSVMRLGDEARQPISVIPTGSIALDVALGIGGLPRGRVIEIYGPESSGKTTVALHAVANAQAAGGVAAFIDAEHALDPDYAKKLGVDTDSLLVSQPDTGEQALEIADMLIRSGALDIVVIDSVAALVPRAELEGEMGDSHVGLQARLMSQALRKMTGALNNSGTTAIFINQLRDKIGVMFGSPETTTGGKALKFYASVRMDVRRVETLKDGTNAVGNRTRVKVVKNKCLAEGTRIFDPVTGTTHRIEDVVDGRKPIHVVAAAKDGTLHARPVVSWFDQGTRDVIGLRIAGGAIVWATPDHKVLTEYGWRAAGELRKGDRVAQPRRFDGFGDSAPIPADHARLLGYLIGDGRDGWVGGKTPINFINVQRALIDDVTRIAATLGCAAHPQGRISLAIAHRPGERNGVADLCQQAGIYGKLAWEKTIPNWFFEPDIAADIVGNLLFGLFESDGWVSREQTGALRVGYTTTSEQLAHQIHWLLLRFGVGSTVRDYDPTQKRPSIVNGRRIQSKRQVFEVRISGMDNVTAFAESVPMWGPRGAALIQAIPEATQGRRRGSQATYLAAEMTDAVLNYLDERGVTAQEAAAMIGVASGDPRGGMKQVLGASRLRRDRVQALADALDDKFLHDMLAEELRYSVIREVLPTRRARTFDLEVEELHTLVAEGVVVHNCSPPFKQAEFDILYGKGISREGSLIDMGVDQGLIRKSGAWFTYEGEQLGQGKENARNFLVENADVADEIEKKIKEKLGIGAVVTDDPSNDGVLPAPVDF

Exodeoxyribonuclease V = target: T4, Exodeoxyribonuclease V (Escherichia coli (strain K12), UniProt P04993+P07648+P08394); assay: E. coli RecBCD inhibitors, dose response, counter-screen for AddAB inhibitor project, absorbance, V66 E. coli, mutant T4 phage (AID 492957); assay type: functional, cell-based, Escherichia coli str. K-12 substr. MG1655
T4 sequence (P04993 whole entry): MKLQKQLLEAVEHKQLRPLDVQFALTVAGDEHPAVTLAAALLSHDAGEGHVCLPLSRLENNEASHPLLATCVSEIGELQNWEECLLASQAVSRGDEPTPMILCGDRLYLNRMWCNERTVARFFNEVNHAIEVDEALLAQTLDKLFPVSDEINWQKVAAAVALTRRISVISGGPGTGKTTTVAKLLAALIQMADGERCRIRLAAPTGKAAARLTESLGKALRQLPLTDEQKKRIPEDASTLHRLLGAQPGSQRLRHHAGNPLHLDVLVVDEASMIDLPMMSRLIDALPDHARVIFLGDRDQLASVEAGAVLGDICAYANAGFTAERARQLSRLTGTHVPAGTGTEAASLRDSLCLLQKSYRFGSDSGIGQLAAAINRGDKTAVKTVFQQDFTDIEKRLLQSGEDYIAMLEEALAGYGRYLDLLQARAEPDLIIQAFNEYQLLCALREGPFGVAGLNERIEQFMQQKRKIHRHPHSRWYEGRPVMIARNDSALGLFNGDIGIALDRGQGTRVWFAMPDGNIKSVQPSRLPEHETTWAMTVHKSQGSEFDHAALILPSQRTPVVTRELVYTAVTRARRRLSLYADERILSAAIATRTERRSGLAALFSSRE
T4 sequence (P07648 whole entry): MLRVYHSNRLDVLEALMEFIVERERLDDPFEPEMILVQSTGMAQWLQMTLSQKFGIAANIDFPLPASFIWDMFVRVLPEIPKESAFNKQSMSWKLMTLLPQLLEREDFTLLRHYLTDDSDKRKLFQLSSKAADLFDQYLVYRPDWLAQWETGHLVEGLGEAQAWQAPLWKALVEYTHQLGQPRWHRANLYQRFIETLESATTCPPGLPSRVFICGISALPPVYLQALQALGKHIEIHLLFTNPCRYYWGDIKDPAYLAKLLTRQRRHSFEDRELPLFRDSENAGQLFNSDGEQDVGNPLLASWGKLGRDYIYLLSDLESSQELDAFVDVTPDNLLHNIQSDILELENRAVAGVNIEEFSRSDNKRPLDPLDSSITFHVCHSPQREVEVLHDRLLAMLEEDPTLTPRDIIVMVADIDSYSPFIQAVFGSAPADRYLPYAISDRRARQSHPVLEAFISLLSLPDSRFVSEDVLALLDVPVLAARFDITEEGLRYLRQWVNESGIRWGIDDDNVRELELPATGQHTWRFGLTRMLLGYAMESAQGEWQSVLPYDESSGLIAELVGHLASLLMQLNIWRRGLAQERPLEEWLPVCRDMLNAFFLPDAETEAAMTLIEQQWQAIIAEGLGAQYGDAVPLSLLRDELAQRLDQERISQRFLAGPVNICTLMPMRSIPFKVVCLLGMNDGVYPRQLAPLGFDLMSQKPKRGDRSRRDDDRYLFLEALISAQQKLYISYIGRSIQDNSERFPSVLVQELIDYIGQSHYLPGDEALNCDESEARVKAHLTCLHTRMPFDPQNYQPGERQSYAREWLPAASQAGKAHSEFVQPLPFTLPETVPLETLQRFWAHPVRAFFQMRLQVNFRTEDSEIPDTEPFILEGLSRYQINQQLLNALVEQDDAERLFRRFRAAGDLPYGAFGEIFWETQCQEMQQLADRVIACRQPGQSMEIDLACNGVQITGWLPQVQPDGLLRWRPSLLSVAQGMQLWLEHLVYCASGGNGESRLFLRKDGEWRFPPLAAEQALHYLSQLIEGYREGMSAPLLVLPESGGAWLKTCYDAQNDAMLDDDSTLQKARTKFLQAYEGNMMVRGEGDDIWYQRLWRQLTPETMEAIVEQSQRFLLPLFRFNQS
T4 sequence (P08394 whole entry): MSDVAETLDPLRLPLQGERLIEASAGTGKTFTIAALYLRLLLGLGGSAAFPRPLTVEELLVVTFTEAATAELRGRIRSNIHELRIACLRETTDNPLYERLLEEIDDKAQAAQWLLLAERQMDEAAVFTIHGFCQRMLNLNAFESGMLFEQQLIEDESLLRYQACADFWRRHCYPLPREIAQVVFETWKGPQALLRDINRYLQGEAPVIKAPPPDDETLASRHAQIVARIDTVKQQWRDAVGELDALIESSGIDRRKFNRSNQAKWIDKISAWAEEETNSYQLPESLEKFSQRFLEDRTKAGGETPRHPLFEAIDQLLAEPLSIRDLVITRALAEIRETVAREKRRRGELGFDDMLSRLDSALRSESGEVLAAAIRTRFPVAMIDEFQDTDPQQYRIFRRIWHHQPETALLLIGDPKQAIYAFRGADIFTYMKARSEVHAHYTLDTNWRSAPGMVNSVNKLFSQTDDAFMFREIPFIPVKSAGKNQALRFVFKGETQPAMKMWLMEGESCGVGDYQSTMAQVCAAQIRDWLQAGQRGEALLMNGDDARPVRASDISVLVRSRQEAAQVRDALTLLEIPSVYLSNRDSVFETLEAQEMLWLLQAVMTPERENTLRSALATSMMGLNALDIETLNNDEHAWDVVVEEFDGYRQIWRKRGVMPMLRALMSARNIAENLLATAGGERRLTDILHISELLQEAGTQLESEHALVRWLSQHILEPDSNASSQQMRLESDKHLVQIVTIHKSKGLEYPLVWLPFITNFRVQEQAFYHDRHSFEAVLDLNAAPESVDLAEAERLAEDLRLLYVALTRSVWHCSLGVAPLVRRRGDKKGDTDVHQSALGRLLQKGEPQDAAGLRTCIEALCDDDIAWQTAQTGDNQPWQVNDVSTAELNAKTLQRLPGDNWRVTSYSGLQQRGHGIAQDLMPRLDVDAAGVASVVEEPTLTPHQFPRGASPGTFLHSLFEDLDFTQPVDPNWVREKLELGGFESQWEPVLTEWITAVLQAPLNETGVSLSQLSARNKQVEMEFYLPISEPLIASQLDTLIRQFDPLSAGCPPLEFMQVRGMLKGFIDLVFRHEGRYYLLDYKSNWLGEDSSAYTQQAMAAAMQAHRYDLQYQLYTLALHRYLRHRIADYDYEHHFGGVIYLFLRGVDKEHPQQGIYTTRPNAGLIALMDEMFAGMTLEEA

[5] = Counterscreen for AddAB inhibitors: absorbance-based bacterial cell-based high throughput dose response assay for inhibitors of bacterial viability. [Related pubchem assays (depositor defined):AID435030, AID449728, AID449731, AID488942, AID488955, AID488956]; assay type: functional
[6] = target: T5, Alkaline phosphatase, tissue-nonspecific isozyme (Homo sapiens, UniProt P05186); assay: human TNAP enzyme inhibitors, SAR follow-up, biochemical, luminescent, dose response (AID 1056)
T5 sequence (P05186 whole entry): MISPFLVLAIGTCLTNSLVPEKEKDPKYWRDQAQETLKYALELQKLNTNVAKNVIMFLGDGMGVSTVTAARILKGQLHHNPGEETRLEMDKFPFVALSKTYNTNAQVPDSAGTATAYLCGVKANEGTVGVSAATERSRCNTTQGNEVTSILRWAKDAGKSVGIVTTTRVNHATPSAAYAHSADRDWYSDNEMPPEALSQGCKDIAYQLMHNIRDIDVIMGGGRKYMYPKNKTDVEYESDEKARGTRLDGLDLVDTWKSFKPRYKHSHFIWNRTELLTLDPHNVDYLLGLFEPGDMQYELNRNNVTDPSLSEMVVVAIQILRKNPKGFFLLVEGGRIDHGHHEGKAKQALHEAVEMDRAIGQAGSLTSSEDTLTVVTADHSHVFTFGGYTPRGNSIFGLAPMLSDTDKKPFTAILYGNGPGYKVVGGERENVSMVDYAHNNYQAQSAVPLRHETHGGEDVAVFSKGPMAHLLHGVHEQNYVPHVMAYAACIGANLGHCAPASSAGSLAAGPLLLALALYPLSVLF

T1 sequence (P49327 whole entry, the tested form may be a part): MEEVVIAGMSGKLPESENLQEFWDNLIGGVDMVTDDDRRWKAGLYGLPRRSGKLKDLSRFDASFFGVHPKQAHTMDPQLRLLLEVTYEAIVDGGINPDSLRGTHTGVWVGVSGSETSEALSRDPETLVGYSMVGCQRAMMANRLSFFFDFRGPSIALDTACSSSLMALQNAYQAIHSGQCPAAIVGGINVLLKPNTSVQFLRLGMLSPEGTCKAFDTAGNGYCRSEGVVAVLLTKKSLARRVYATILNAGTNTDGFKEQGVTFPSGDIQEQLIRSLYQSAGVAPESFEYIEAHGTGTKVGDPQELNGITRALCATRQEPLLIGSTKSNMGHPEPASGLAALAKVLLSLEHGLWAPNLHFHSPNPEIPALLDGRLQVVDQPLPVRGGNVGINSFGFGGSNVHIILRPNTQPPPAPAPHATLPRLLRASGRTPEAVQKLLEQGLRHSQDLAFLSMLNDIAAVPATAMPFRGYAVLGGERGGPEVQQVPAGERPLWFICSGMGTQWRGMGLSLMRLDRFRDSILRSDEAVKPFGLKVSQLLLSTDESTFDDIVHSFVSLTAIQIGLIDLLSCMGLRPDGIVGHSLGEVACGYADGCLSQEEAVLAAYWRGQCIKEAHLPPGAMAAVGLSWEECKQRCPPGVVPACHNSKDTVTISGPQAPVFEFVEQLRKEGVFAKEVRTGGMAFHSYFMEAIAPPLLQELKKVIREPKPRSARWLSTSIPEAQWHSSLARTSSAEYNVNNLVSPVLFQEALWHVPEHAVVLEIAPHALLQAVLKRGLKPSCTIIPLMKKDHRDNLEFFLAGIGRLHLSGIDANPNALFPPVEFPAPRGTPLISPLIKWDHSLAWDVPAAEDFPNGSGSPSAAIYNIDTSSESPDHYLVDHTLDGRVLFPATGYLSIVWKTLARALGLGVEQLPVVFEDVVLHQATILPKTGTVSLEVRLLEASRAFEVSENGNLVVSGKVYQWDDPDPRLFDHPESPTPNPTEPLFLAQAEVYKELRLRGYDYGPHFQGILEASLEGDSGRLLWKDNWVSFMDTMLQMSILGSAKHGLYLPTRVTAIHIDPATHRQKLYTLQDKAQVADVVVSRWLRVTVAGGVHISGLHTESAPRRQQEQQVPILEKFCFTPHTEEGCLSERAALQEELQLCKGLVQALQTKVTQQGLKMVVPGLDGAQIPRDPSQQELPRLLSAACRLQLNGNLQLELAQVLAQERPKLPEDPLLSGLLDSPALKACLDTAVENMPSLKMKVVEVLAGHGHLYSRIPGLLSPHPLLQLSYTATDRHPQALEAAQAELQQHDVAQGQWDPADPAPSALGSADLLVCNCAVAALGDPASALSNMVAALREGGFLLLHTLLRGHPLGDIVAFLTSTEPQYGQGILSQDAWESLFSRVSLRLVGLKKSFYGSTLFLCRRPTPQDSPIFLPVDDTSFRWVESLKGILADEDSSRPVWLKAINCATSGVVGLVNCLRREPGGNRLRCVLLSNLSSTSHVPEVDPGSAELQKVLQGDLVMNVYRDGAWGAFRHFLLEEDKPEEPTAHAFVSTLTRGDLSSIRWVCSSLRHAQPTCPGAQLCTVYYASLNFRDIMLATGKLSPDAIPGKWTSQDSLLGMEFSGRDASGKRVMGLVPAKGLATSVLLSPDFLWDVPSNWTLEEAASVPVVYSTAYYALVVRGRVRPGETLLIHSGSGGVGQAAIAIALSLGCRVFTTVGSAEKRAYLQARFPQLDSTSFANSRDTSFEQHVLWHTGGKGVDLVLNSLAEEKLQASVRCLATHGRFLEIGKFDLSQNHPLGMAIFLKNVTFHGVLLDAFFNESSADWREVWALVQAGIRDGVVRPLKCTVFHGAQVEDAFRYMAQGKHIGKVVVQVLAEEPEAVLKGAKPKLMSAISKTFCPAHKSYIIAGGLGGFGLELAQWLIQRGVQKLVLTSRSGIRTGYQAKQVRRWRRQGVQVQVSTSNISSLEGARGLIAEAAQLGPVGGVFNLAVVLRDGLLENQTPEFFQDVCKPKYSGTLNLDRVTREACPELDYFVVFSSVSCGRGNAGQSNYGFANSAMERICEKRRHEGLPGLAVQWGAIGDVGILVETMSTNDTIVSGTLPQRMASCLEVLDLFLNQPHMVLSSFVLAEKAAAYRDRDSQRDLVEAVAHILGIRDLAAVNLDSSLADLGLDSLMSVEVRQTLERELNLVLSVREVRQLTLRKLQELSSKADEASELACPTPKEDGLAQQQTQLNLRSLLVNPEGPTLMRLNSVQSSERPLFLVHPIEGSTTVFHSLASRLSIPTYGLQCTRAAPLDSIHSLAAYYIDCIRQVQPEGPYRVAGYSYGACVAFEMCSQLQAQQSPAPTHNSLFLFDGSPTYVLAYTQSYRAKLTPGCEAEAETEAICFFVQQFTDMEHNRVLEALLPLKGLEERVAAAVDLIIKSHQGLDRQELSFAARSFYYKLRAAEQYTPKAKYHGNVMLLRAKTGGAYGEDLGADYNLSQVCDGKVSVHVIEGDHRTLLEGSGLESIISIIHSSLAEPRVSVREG
Sequence of G-protein coupled receptor 55 (Q9Y2T6 whole entry): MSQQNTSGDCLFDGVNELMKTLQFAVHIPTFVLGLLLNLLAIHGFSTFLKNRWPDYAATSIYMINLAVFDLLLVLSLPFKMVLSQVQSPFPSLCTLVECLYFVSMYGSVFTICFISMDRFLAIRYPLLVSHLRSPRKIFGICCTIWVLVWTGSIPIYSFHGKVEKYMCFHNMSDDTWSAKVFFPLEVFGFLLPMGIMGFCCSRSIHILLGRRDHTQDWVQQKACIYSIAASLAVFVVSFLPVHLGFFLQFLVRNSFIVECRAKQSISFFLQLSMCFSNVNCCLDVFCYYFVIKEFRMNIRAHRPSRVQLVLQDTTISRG

O=C(Nc1ccc(Cl)cc1)C(Cl)C(=O)c1ccccc1 (stereo not drawn)
IC50 (Fatty acid synthase [1]): 4.3 µM (active)
IC50 (Fatty acid synthase [2]): 4.67 µM (active)
IC50 [3]: 1.07 µM (active)
AC50 [4]: 5.89 µM (active)
EC50 (Protein RecA): 30.3 µM (active)

COc1ccc(-c2cc(N3CCCC3)n3ncnc3n2)cc1
IC50 (Exodeoxyribonuclease V): > 119 µM (inactive)
IC50 [5]: > 119 µM (inactive)

O=C(O)c1[nH]nc2c1COc1ccccc1-2
IC50 [6]: 1.31 µM (active)
